Target: T1, PCTAIRE1 (PCTK1/CDK16) (Homo sapiens, UniProt Q00536)
T1 construct: recombinant GST-fusion or His-tagged protein from human cDNA, expressed in Sf9 insect cells or E. coli; with CycY (cyclin Y)
Assay: radiometric protein kinase assay ([…]PanQinase) with GSK3([…]-27) peptide substrate
Type: biochemical

T1 sequence (Q00536 whole entry, the tested form may be a part): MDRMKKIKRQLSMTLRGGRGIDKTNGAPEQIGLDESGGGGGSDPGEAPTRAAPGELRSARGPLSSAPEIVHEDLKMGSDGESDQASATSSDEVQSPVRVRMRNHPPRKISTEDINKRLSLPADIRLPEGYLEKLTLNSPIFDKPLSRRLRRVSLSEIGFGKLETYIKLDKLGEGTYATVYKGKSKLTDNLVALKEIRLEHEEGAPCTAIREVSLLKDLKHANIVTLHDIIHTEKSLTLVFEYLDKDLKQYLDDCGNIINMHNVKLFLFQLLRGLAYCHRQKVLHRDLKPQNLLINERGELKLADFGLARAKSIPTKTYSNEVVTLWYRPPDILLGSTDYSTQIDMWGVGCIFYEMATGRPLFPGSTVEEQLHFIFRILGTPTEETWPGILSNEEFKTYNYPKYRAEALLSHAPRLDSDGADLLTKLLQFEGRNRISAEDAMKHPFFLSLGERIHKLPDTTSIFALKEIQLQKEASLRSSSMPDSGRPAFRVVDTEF
T1 sequence (Q8ND76 2-341 partner): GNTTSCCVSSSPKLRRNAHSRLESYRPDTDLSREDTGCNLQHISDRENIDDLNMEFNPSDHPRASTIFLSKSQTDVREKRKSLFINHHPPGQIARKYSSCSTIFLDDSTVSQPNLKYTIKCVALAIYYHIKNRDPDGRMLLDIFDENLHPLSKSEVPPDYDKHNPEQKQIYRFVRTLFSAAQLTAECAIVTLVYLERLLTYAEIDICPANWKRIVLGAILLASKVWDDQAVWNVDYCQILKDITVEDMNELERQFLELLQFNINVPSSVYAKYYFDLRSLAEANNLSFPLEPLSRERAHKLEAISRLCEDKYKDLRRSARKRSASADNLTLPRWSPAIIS

SMILES: O=C1Nc2ccccc2/C1=C1/Nc2ccccc2/C1=N\OCCC(O)CO (stereo not shown) [indirubin E804]
- IC50: 0.053 µM
